6 compounds from PMC8168783, “An anion and small molecule inhibition study of the β-carbonic anhydrase from Staphylococcus aureus” (Journal of Enzyme Inhibition and Medicinal Chemistry, 2021) can be followed below.

Each structure is given as a SMILES string.

The target in one assay is T1, SauBCA.
T1 construct: recombinant, obtained in-house as described earlier
Put plainly: stopped-flow CO2 hydration assay. In kind it is biochemical, Staphylococcus aureus. As to conditions: CO2 1.7-17 mM, 10 mM Hepes pH 7.4, 10 mM NaClO4, 15 min preincubation at room temperature; inhibitor as sodium salt.
In the case of `CCN(CC)C(=S)S` [N,N-diethyldithiocarbamate], the Ki (usually a dissociation constant, usually derived from enzyme kinetics or from competition with a known ligand) is 0.64 mM.
For the compound `O=S(O)O` [bisulphite], the Ki stood at 0.9 mM.
The same measure, in the same setting: under `O=[As](O)(O)c1ccccc1` [phenylarsonic acid] stands 0.007 mM; under `N#C[SeH]` [selenocyanate], 5.5 mM; under `[O]=[Sn]([OH])[OH]` [stannate], 0.32 mM.

The assay is the same for the next values; noted with them: CO2 1.7-17 mM, 10 mM Hepes pH 7.4, 10 mM NaClO4, 15 min preincubation at room temperature; not as sodium salt.
Consider `OB(O)c1ccccc1` [phenylboronic acid], for which the Ki is 0.008 mM.
